The text below walks through data of ChEMBL document CHEMBL4477272, “Toward chelerythrine optimization: Analogues designed by molecular simplification exhibit selective growth inhibition in non-small-cell lung cancer cells” (Bioorg Med Chem, 2016).

Activity calls are given as the source filed them. No cut-off for these calls is given here. Some results are limits rather than exact numbers.

Series [1] can be described thus: Selectivity index, ratio of IC50 for human LL24 cells to IC50 for human A549 cells.
Series [2] is described as follows: Cytotoxicity against human LL24 cells assessed as reduction in cell viability after 24 hrs by MTT assay. The series is classed as cell-based. The following applies: LL24, 24 h. A general note: Tetrazolium assays rely on reduction of a dye to a coloured formazan, in cell work by metabolically active cells.
Series [3] in a line: Selectivity index, ratio of IC50 for human LL24 cells to IC50 for human NCI-H292 cells.
The nature of series [4]: Selectivity index, ratio of IC50 for HUVEC to IC50 for human NCI-H1299 cells. The class given is toxicity. Particulars: HUVEC versus NCI-H1299 cells, read-out: Ratio IC50.
The test system of the next series is NCI-H292. Nature of the series: Cytotoxicity against human NCI-H292 cells assessed as reduction in cell viability after 24 hrs by MTT assay. The class given is functional, cell-based. The following applies: NCI-H292, 24 h.
The subject of series [5] is NCI-H1299. The experiment in a line: Cytotoxicity against human NCI-H1299 cells assessed as reduction in cell viability after 24 hrs by MTT assay. The class given is functional, cell-based. Particulars: NCI-H1299, 24 h.
A short description of series [6]: Selectivity index, ratio of IC50 for HUVEC to IC50 for human NCI-H292 cells.
Series [7] can be described thus: Selectivity index, ratio of IC50 for HUVEC to IC50 for human A549 cells. The series is classed as toxicity. Particulars: HUVEC versus A549 cells, read-out: Ratio IC50.
Series [8] is described as follows: Selectivity index, ratio of IC50 for human LL24 cells to IC50 for human NCI-H1299 cells.
In another series the test system is NCI-H460. The experiment in a line: Cytotoxicity against human NCI-H460 cells assessed as reduction in cell viability after 24 hrs by MTT assay. The series is classed as functional, cell-based. The following applies: NCI-H460, 24 h.
The subject of a further series is HUVEC. The experiment in a line: Cytotoxicity against HUVEC assessed as reduction in cell viability after 24 hrs by MTT assay. The class given is cell-based. Particulars: Homo sapiens.
Series [9] deals with A549. Nature of the series: Cytotoxicity against human A549 cells assessed as reduction in cell viability after 24 hrs by MTT assay. The series is classed as functional, cell-based. Particulars: A549, 24 h.
The subject of series [10] is A549. Nature of the series: Cell cycle arrest in human A549 cells assessed as accumulation at G0/G1 phase at 50 uM after 24 hrs by propidium iodide staining based flow cytometry (reference value: 33.4%). The series is classed as functional. On the technique in general: In flow cytometry, cells or beads pass a laser one at a time.
The test system of series [11] is A549. The experiment in a line: Cell cycle arrest in human A549 cells assessed as accumulation at G0/G1 phase at 100 uM after 24 hrs by propidium iodide staining based flow cytometry (reference value: 33.4%). The class given is functional.
Series [12] deals with A549. Nature of the series: Cell cycle arrest in human A549 cells assessed as decrease in S phase at 50 to 100 uM after 24 hrs by propidium iodide staining based flow cytometry. The class given is functional.
Series [13] relates to NCI-H1299. The experiment in a line: Cell cycle arrest in human NCI-H1299 cells assessed as accumulation at S phase at 100 uM after 24 hrs by propidium iodide staining based flow cytometry (reference value: 7.8%). The series is classed as functional.
Series [14] relates to NCI-H1299. The experiment in a line: Cell cycle arrest in human NCI-H1299 cells assessed as accumulation at G0/G1 phase at 100 uM after 24 hrs by propidium iodide staining based flow cytometry (reference value: 39%). The series is classed as functional.
In series [15] the test system is A549. Nature of the series: Cell cycle arrest in human A549 cells assessed as accumulation at G0/G1 phase at 75 uM after 24 hrs by propidium iodide staining based flow cytometry (reference value: 33.4%). The series is classed as functional.
For series [16], the system named is NCI-H1299. Nature of the series: Cytostatic activity against human NCI-H1299 cells assessed as inhibition of colony formation after 24 hrs measured after 10 days by crystal violet staining based method. The class given is functional, cell-based.
The subject of series [17] is A549. Nature of the series: Cytostatic activity against human A549 cells assessed as inhibition of colony formation after 24 hrs measured after 10 days by crystal violet staining based method. The series is classed as functional, cell-based.
For series [18], the system named is A549. Nature of the series: Cell cycle arrest in human A549 cells assessed as accumulation at G0/G1 phase after 24 hrs by propidium iodide staining based flow cytometry. The series is classed as functional.
The subject of series [19] is NCI-H1299. The experiment in a line: Cell cycle arrest in human NCI-H1299 cells assessed as accumulation at S phase at 75 uM after 24 hrs by propidium iodide staining based flow cytometry (reference value: 7.8%). The series is classed as functional.
Series [20] relates to A549. The experiment in a line: Cell cycle arrest in human A549 cells assessed as decrease in G2/M phase at 50 to 100 uM after 24 hrs by propidium iodide staining based flow cytometry. The series is classed as functional.
Series [21] concerns NCI-H1299. Nature of the series: Cell cycle arrest in human NCI-H1299 cells assessed as accumulation at G0/G1 phase at 50 uM after 24 hrs by propidium iodide staining based flow cytometry (reference value: 39%). The series is classed as functional.
For series [22], the system named is NCI-H1299. The experiment in a line: Cell cycle arrest in human NCI-H1299 cells assessed as accumulation at G0/G1 phase at 75 uM after 24 hrs by propidium iodide staining based flow cytometry (reference value: 39%). The class given is functional.
Series [23] deals with NCI-H1299. Nature of the series: Cell cycle arrest in human NCI-H1299 cells assessed as accumulation at G0/G1 phase after 24 hrs by propidium iodide staining based flow cytometry. The series is classed as functional.
The test system of series [24] is NCI-H1299. The experiment in a line: Cell cycle arrest in human NCI-H1299 cells assessed as accumulation at S phase at 50 uM after 24 hrs by propidium iodide staining based flow cytometry (reference value: 7.8%). The class given is functional.
A short description of series [25]: Selectivity index, ratio of IC50 for human LL24 cells to IC50 for human NCI-H460 cells.
Series [26] in a line: Selectivity index, ratio of IC50 for HUVEC to IC50 for human NCI-H460 cells. The series is classed as toxicity. Particulars: HUVEC versus NCI-H460 cells, read-out: Ratio IC50.

For orientation: IC50 means the concentration that inhibits the measured activity by half. As to `COc1ccc(CNCc2ccc3c(c2)OCO3)cc1.Cl`, the “Ratio IC50” value in series [1] was greater than 1.61; in series [3] it was greater than 1.31; in series [6] it was greater than 1.31; in [8] it was greater than 2.71. The half-maximal inhibitory concentration (IC50) in series [2] was greater than 200 µM; in the series on NCI-H292 it was 153 µM; with NCI-H1299 [5] it was 73.7 µM; in the series on NCI-H460, greater than 200 µM; with HUVEC, greater than 200 µM; in the series on A549 [9] it was 124 µM. The selectivity ratio is greater than 2.71 in series [4] and greater than 1.61 in series [7].

With `COc1cc(CNCc2ccc3c(c2)OCO3)cc(OC)c1OC.Cl`, the half-inhibitory concentration (IC50) in [2] was greater than 200 µM; with NCI-H292, greater than 200 µM; in the series with NCI-H1299 [5] it was 107 µM; with NCI-H460, greater than 200 µM; with HUVEC it was greater than 200 µM; with A549 [9] it was greater than 200 µM. Further, the selectivity ratio in [4] is greater than 1.88. Besides, the “Ratio IC50” value in series [8] is listed as greater than 1.88.

Take `COc1ccc(CNCc2ccc3c(c2)OCO3)cc1O`: the concentration for half-maximal inhibition (IC50) (in [2]; in the series on NCI-H292; in the series on NCI-H1299 [5]; with NCI-H460; in the series on HUVEC; in the series on A549 [9]) was greater than 200 µM in each case.

`Cl.c1ccc(CNCc2ccc3c(c2)OCO3)cc1`: the IC50 in series [2] was greater than 200 µM; in the series with NCI-H292 it was greater than 200 µM; in the series with NCI-H1299 [5], 67.2 µM; in the series on NCI-H460, greater than 200 µM; in the series on HUVEC, greater than 200 µM; in the series on A549 [9] it was greater than 200 µM. The selectivity ratio in [4] is greater than 2.98. For the same molecule, the “Ratio IC50” value in series [8] is greater than 2.98.

Take `COc1ccc(CN(C)Cc2ccc3c(c2)OCO3)cc1OC`: the 50% inhibitory concentration (IC50) (in series [2]; in the series on NCI-H292; with NCI-H1299 [5]; in the series on NCI-H460; in the series with HUVEC; in the series on A549 [9]) was greater than 200 µM each time.

Take `Cl.Oc1ccc(CNCc2ccc3c(c2)OCO3)cc1O`: the “Ratio IC50” value in [1] is greater than 1.78. Moreover, the Activity in the series with A549 [10] was 45.9%; with A549 [11], 54.3%; in the series with NCI-H1299 [13], 17.7%; with NCI-H1299 [14], 55.8%; in the series with A549 [15], 49.6%; with A549 [18], “Dose-dependent effect”. The Activity with NCI-H1299 [19] is 20.4%; with NCI-H1299 [21], 53.5%; in the series with NCI-H1299 [22], 65%; in the series on NCI-H1299 [23], “Dose-dependent effect”; in the series on NCI-H1299 [24], 26.8%. The outcome with A549 [12] and in the series on A549 [20] was Active. For the same molecule, the concentration for half-maximal inhibition (IC50) in [2] is greater than 200 µM; in the series on NCI-H292 it was greater than 200 µM; with NCI-H1299 [5] it was greater than 200 µM; with NCI-H460 it was greater than 200 µM; with HUVEC it was greater than 200 µM; with A549 [9], 112 µM. For the same molecule, the selectivity ratio in [7] was greater than 1.78. Also, the inhibition entry with NCI-H1299 [16] and with A549 [17] was “Dose-dependent effect” throughout.

Regarding `COc1cc(CN(C)Cc2ccc3c(c2)OCO3)cc(OC)c1OC`, the IC50 (in series [2]; with NCI-H292; in the series with NCI-H1299 [5]; in the series on NCI-H460; in the series on HUVEC; in the series on A549 [9]) was greater than 200 µM throughout.

As for `COc1ccc2c(c[n+](C)c3c4cc5c(cc4ccc23)OCO5)c1OC` [CHELERYTHRINE], the “Ratio IC50” value in series [1] was found to be 0.48; in [3], 0.75; in series [6] it was 0.99; in [25], 0.73; in series [8] it was 0.87. Also, the IC50 came out at 3.73 µM in [2]; 4.96 µM in the series with NCI-H292; 4.28 µM in the series on NCI-H1299 [5]; 5.14 µM in the series on NCI-H460; 4.93 µM in the series with HUVEC; 7.73 µM in the series with A549 [9]. For the same molecule, the selectivity ratio in series [4] turned out to be 1.15; in [7] it was 0.64; in [26], 0.96.

Consider `COc1ccc(CNCc2ccc3c(c2)OCO3)cc1OC.Cl`, for which the “Ratio IC50” value in series [1] is greater than 1.69; in series [8], greater than 2.17. Moreover, the half-inhibitory concentration (IC50) in series [2] is greater than 200 µM; in the series on NCI-H292 it was greater than 200 µM; in the series with NCI-H1299 [5] it was 92.3 µM; in the series with NCI-H460, greater than 200 µM; with HUVEC it was greater than 200 µM; in the series on A549 [9], 118 µM. The selectivity ratio in series [4] is greater than 2.17; in [7] it was greater than 1.69.

`COc1ccc(CN(C)Cc2ccc3c(c2)OCO3)cc1.Cl`: the IC50 in series [2] is greater than 200 µM; in the series with NCI-H292, greater than 200 µM; in the series on NCI-H1299 [5], 76.4 µM; in the series with NCI-H460 it was greater than 200 µM; in the series with HUVEC, greater than 200 µM; in the series with A549 [9], greater than 200 µM. Also, the selectivity ratio in [4] is greater than 2.62. Moreover, the “Ratio IC50” value in [8] is reported as greater than 2.62.

For `CN(Cc1ccccc1)Cc1ccc2c(c1)OCO2.Cl`, the IC50 in series [2] is greater than 200 µM; in the series with NCI-H292, greater than 200 µM; in the series on NCI-H1299 [5] it was 91.2 µM; in the series with NCI-H460 it was greater than 200 µM; in the series with HUVEC, greater than 200 µM; in the series with A549 [9] it was greater than 200 µM. The selectivity ratio in [4] was greater than 2.19. Moreover, in [8], the “Ratio IC50” value is recorded as greater than 2.19.
